Source: patent US20230292780A1, “LISTERIA INHIBITION BY MANGANESE DEPLETION” (Chr. Hansen A/S, priority 2020, published 2023)
Read-outs that look alike come from different tables or passages of the source.

What was measured:
[1] = test system: four Listeria spp. strains (L. monocytogenes DSM 15675, mhl210, ATCC 13932; L. innocua BL 86/26); settings: for growth (absorbance at 600 nm): 30° C.
Description: (§1) All the components were dissolved in 700 mL Milli-Q water to minimize traces of manganese, and the pH was set to 6.8 with KOH, after which the volume was adjusted to 1 L and filter-sterilized.
(§2) The following strains were tested: • 1. L. monocytogenes 1: DSM 15675 (obtainable from DSMZ) • 2. L. monocytogenes 2: mhl210 (obtainable from the Copenhagen University from Department of Veterinary and Animal Sciences, Section for Food Safety and Zoonoses) • 3. L. monocytogenes 3: ATCC 13932 (obtainable from ATCC) • 4. L. innocua BL 86/26 • 5. L. lactis subsp. cremoris MG1363 (MoBiTec GmbH, Germany)
(§3) L. innocua BL 86/26 and L. lactis MG1363 were pre-grown from -80° C. glycerol stocks in M17 broth with 1% (w/v) glucose. The three L. monocytogenes were pre-grown from −80° C. glycerol stocks in BHI. All cultures were incubated overnight as standing cultures at 30° C., resulting in stationary phase cultures. The next day, 1 mL of each culture was washed twice with and resuspended in manganese-deficient CDM to remove residual manganese. 1 μL of each washed culture was then used to inoculate, in triplicate, a well of a 96-wells plate containing 200 μL CDM supplemented with 1% glucose diluted from a 50% (w/v) stock solution dissolved in demineralized water, in which manganese was left out, or added to a final concentration of 0.00006, 0.0006, 0.006, 0.06 or 0.6 mg L^−1 manganese. Growth was followed by monitoring the absorbance at 600 nm at 30° C. in a Synergi H1 reader (BioTek, Winooski, VT, USA). This experiment was repeated twice on separate days to check reproducibility.

[2] = test system: L. lactis subsp. cremoris MG1363; settings: same CDM
Description: as §1, §2, §3

L. innocua BL 86/26 = settings: CDM, 30° C.
Description: (§4) CDM for growth of Lactococcus lactis and Listeria innocua was prepared as described in Example 1. As to Streptococcus thermophilus, a second Mn-free CDM supporting it growth was prepared essentially as described by Otto et al. (“The relation between growth rate and electrochemical proton gradient of Streptococcus cremoris.” FEMS Microbiology Letters 16.1 (1983): 69-74) with the following exceptions: All metals were used in the same final concentrations as listed in Table 4, and all amino acids were added to a final concentration of 0.08 g/L except for cysteine, which consisted of a final concentration of 0.5 g/L. Wolfe's vitamin solution was used in which DL-Ca-pantothenate was increased to have a final concentration of 400 mg/L, and urea and NaHCO3 were added to a final concentration of 0.12 and 0.42 g, respectively.
(§5) The following strains were tested: • 1. L. lactis single strain isolated from Fresco 1000NG-10 (Chr. Hansen A/S, Denmark) • 2. S. thermophilus single strain isolated from Fresco 1000NG-10 (Chr. Hansen A/S, Denmark) • 3. L. innocua BL 86/26
(§6) All strains were pre-grown to stationary phase cultures from −80° C. glycerol stocks in M17 broth with 1% (w/v) glucose, as standing cultures at 30° C. 1 mL of each culture was then washed twice with and resuspended in manganese-deficient CDM to remove residual manganese. 1 μL of each washed culture was then used to inoculate, in triplicate, a well of a 96-wells plate containing 200 μL CDM supplemented with 1% (w/v) glucose diluted from a 50% (w/v) stock solution dissolved in Milli-Q water, and in which manganese was left out, or added to a final concentration of 0.00006, 0.0006, 0.006, 0.06 or 0.6 mg L-1 manganese. Growth was followed by monitoring the absorbance at 600 nm at 30° C. in a Synergi H1 reader (BioTek, Winooski, VT, USA).

[3] = test system: S. thermophilus single strain isolated from Fresco 1000NG-10; settings: second Mn-free CDM, 0 to 0.6 ppm manganese, 30° C.
Description: as §4, §5, §6

[4] = test system: L. lactis single strain isolated from Fresco 1000NG-10; settings: CDM, 0 to 0.6 ppm manganese, 30° C.
Description: as §4, §5, §6

[Mn+2] [manganese]
growth (absorbance at 600 nm) ([1]; 0.0006 ppm manganese added to CDM): severely hampered | growth (absorbance at 600 nm) ([1]; 0.006 ppm manganese added to CDM): some growth defects | growth (absorbance at 600 nm) ([1]; 0.06 ppm manganese added to CDM): no growth defect | growth (absorbance at 600 nm) ([1]; 0.6 ppm manganese added to CDM): no growth defect | manganese concentration below which inhibition of Listeria can be seen ([1]; CDM): below 0.006 ppm | manganese concentration that restored the growth of Listeria ([1]; CDM): above 0.006 ppm | time the inhibitory effect due to low manganese levels is maintained ([1]; low manganese levels in CDM): at least 20 hours | growth on depletion of manganese [2]: hardly inhibited | manganese required for growth to occur (L. innocua BL 86/26): more than 0.0006 ppm | growth on depletion of manganese [3]: minimally inhibited | growth on depletion of manganese [4]: minimally inhibited
